Laboratory results reported in patent US12649980B2, “Three-dimensional surface for protein and small molecule microarrays” (The Johns Hopkins University, priority 2019, dated 2026).

Legend:
MCF-7 [1] = assay: [3H]-2DG uptake assay in MCF-7 cells; format: cell-based, human
Method: (§1) Hay, Nat. Rev. […] To determine whether RgA could inhibit glucose uptake in cancer cell lines in addition to A549, the impact of RgA on [3H]-2DG uptake in six other cancer cell lines, including HCC1954, MCF-7, PANC10.05, Jurkat T, HeLa, and RKO was measured (FIG. 3A, Table 3).
(§2) The inhibitory activity of compounds on glucose transport was analyzed by measuring the cell uptake of [3H]-2DG as previously described. Ulanovskaya et al., Chem. Biol. 2011, 18, 222-230. Briefly, cells were washed twice and incubated in low-glucose medium for 10 min. Cells were added drugs and incubated for another 10 min before adding [3H]-2DG. After 10 min incubation with [3H]-2DG, cells were washed twice and lysed with 0.2 N NaOH plus 0.2% SDS. The cell lysate was transferred to a new tube containing 1 mL of optiphase supermix. Glucose uptake was quantified with a scintillation counter.

p53 and p21 = assay: Western blot of p53 and p21 in MCF-7 cells; format: cell-based, human; settings: MCF-7, 24-h treatment, dose-dependent
Method: (§3) The effects of RgA on cell growth, survival, and cell death was then determined. […] Treatment with 5 μM of RgA caused an increase in G1 phase by approximately 23% in comparison to control and approximately 7% and 17% decreases in cells in S and G2/M phases, respectively. The induction in G1 phase cell cycle arrest by RgA is dose-dependent (FIG. 5A, FIG. 16). […] Jones and Thompson, Genes Dev. 2009, 23, 537-548. […] The IC50 values of RgA against several human cancer cell lines also was determined using the alamar blue cell proliferation assay.
(§4) For western blot analysis, cells were harvested and lysed by RIPA buffer plus protease inhibitor. Cell lysates or samples from pull-down experiment were subjected to SDS/PAGE and then transferred to a nitrocellulose membrane. Membranes were first blocked in 5% (wt/vol) BSA in Tris-buffered saline plus 0.1% Tween 20 (TBST) at room temperature for 30 min and incubated with primary antibodies at 4° C. for overnight. Membranes were then washed three times with TBST and incubated with secondary antibodies at room temperature for another 1 h. Membranes were washed with TBST three times again and incubated with ECL substrate for 1 min at room temperature. Pictures were captured using a GeneSys Image Station.

HeLa [2] = assay: [3H]-2DG uptake assay in HeLa cells; format: cell-based, human
Method: as §1, §2

HCC1954 = assay: Alamar blue cell proliferation assay, HCC1954; format: cell-based, human; settings: HCC1954, 72 h; read-out: IC50 Assay B (Alamar blue cell proliferation)
Method: as §3
(§5) Cells were seeded into a 96-well plate (Costar) in 180 μL culture media. After an overnight recovery, drugs were added and incubated for 72 h. After drug incubation, cells were added with 20 μL of alamar blue reagent and the plates were incubated at 37° C. for 6 h before reading the fluorescence (544 nm Ex/590 nm Em) with a plate reader. GraphPad Prism (v4.03) software was used to determine IC50 values using a four parameter logistic regression.

[3] = test system: sealed erythrocyte membranes; assay: [3H]-2DG uptake in purified sealed erythrocyte membranes; format: cell-based, human; settings: read-out: IC50 [3H]-2DG uptake into sealed erythrocyte membranes
Method: (§6) To determine which of the 17 rapafucin hits inhibited the transporter activity of GLUT1, an orthogonal glucose uptake assay using 2-deoxy-D-[3H] glucose ([3H]-2DG), a nonhydrolyzable, radioactive glucose analog, was employed. Each hit was separately incubated with A549 cells for 10 min before the amount of [3H]-2DG taken up by the cells was measured using scintillation counting. […] The effect of JW11-D2 on uptake of [3H]-2DG in human red blood cells that exclusively express GLUT1 was then determined. Helgerson and Carruthers, J. Biol. Chem. 1987, 262, 5464-5475. […] To further improve the potency of JW11-D2, a structure-activity relationship (SAR) study was performed by synthesizing 21 new analogs of JW11-D2 using different amino acid building blocks.

FKSP13 = FKSP13 (Homo sapiens, UniProt P26885); assay: peptidyl prolyl cis-trans isomerase activity inhibition, FKSP13; format: biochemical; settings: inhibition of prolyl isomerase activity
human red blood cells = assay: [3H]-2DG uptake in human red blood cells; format: cell-based; settings: human red blood cells that exclusively express GLUT1; read-out: IC50 [3H]-2DG uptake into red blood cells
Method: as §6, §2

A549 cells = assay: [3H]-2DG uptake assay in A549 cells; format: cell-based, human; settings: 10 min incubation with compound, mean ± s.d., n = 3
Method: as §6, §2

PARP and caspase 7 = assay: Western blot of apoptosis markers in MCF-7 cells; format: cell-based, human; settings: MCF-7, 5 μM, 72 h; inhibited by Z-VAD
Method: as §3, §4

HeLa [4] = assay: Alamar blue cell proliferation assay, HeLa; format: cell-based, human; settings: 72 h, read-out: IC50 Assay B (Alamar blue cell proliferation)
Method: as §3, §5

RKO [5] = assay: [3H]-2DG uptake assay in RKO cells; format: cell-based, human
Method: as §1, §2

FKBP51 = FKBP51 (Homo sapiens, UniProt Q13451); assay: peptidyl prolyl cis-trans isomerase activity inhibition, FKBP51; format: biochemical; settings: inhibition of prolyl isomerase activity
RKO [6] = assay: Alamar blue cell proliferation assay, RKO; format: cell-based, human; settings: 72 h, read-out: IC50 Assay B (Alamar blue cell proliferation)
Method: as §3, §5

MCF-7 [7] = assay: Alamar blue cell proliferation assay, MCF-7; format: cell-based, human; settings: MCF-7, 72 h; read-out: IC50 Assay B (Alamar blue cell proliferation)
Method: as §3, §5

Jurkat T = assay: [3H]-2DG uptake assay in Jurkat T cells; format: cell-based, human
Method: as §1, §2

Chain of FKBP51 (Q13451 whole entry): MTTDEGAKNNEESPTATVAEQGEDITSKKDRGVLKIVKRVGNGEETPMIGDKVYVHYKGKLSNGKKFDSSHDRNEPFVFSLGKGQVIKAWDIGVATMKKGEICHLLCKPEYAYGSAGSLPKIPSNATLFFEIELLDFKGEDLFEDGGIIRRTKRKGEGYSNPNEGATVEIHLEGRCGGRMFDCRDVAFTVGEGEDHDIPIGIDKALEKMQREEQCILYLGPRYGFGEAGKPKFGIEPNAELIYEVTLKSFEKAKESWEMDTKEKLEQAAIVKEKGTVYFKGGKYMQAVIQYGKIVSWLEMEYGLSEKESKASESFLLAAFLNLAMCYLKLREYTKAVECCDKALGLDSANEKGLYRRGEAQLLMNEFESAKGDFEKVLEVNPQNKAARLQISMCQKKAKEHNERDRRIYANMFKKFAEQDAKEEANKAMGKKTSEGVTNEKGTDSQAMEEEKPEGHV
Chain of FKSP13 (P26885 22-142): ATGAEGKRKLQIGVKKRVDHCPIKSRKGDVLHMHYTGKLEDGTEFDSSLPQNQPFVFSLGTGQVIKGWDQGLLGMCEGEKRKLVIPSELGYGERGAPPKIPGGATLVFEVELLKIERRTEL

- IC50 (MCF-7 [1]; MCF-7): 3.3 nM
- IC50 (HeLa [2]): 18.9 nM
- IC50 (HCC1954): 109 nM
- IC50 [3]: 49.5 nM
- Ki (FKSP13): 539 ± 207 nM
- IC50 (human red blood cells): 34.2 nM
- IC50 (A549 cells): 11.6 nM
- IC50 (HeLa [4]): 281 nM
- IC50 (RKO [5]): 10.8 nM
- Ki (FKBP51): 46 ± 10 nM
- IC50 (MCF-7 [7]): 87.3 nM
- IC50 (Jurkat T): 10.1 nM
SMILES: CCC(C)C1C(=O)NCC(=O)N(C)CCC=CC(=O)OCC(C)(C)C(=O)C(=O)N2CCCCC2C(=O)OC(CCc2ccc(OC)c(OC)c2)c2cccc(c2)NC(=O)CCC(=O)N(C)C(CC(C)C)C(=O)NC(Cc2ccccc2)C(=O)N1C (stereo not shown) [JW11-D2, Rapaglutin A]
- effect of high concentration of FK506 and rapamycin on the inhibitory activity of RgA (MCF-7 [1]; MCF-7, 100 nM RgA, 20 μM FK506, 20 μM Rapamycin): negligible effect
- p53 and p21 activation (p53 and p21): activation of both p53 and p21
- PARP and caspase 7 cleavage (apoptosis) (PARP and caspase 7): resulted in poly(ADP-ribose) polymerase (PARP) and caspase 7 cleavage
- IC50 (RKO [6]): 114 nM
